According to PubChem BioAssay (NCI):
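Tested at 5 concentrations; 48 h exposure; 96-well plates; endpoints linearly interpolated, else capped at highest concentration. The concentration for full growth arrest is given as TGI.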 Where a SMILES comes first, the peptide text is derived from it. [ ]: non-standard residue; d: D form. The star is where a group is joined. Octanoyl = CCCCCCCC(=O)*; Aib = CC(C)(N)C(=O)O; tBu = CC(C)(C)*

How the values were obtained:
Experiment in all cases: growth of human tumour cells (NCI), 48 h
786-0 renal = system: 786-0 renal
A549 NSCLC = system: A549 NSCLC
CCRF-CEM leukemia = system: CCRF-CEM leukemia
HCT-116 colon = system: HCT-116 colon
NCI-H226 lung = system: NCI-H226 lung
NCI-H23 lung = system: NCI-H23 lung
NCI-H460 lung = system: NCI-H460 lung
OVCAR-8 ovarian = system: OVCAR-8 ovarian
SK-MEL-28 melanoma = system: SK-MEL-28 melanoma
SK-OV-3 ovarian = system: SK-OV-3 ovarian
SNB-75 CNS = system: SNB-75 CNS
U251 CNS = system: U251 CNS
UACC-257 melanoma = system: UACC-257 melanoma
UACC-62 melanoma = system: UACC-62 melanoma

Compound: CCCCn1c2c(n(CCCC)c1=S)-c1c(n(CCCC)c(=S)n1CCCC)SSSS2
- TGI (786-0 renal): 19.4 µM
- TGI (A549 NSCLC): > 95.1 µM
- TGI (CCRF-CEM leukemia): > 100 µM
- TGI (HCT-116 colon): 11.8 µM
- TGI (NCI-H226 lung): 80.8 µM
- TGI (NCI-H23 lung): 14.3 µM
- TGI (NCI-H460 lung): > 93.6 µM
- TGI (OVCAR-8 ovarian): 18.1 µM
- TGI (SK-MEL-28 melanoma): 31.6 µM
- TGI (SK-OV-3 ovarian): > 100 µM
- TGI (SNB-75 CNS): 37.7 µM
- TGI (U251 CNS): 12.9 µM
- TGI (UACC-257 melanoma): 9.13 µM
- TGI (UACC-62 melanoma): 4.87 µM

Compound: CC1CCC2C(C(=O)O[C@H]3C4CCO[C@@H](OC5OC(CO)C(O)C(O)C5O)C4[C@@]4(CO)O[C@@H]34)=CO[C@@H](OC3OC(CO)C(O)C(O)C3O)C12 (some centres undefined)
- TGI (786-0 renal): > 10 µM
- TGI (A549 NSCLC): > 10 µM
- TGI (CCRF-CEM leukemia): > 10 µM
- TGI (HCT-116 colon): > 10 µM
- TGI (NCI-H226 lung): > 10 µM
- TGI (NCI-H23 lung): > 10 µM
- TGI (NCI-H460 lung): > 10 µM
- TGI (OVCAR-8 ovarian): > 10 µM
- TGI (SK-MEL-28 melanoma): > 10 µM
- TGI (SK-OV-3 ovarian): > 10 µM
- TGI (SNB-75 CNS): > 10 µM
- TGI (U251 CNS): > 10 µM
- TGI (UACC-257 melanoma): > 10 µM
- TGI (UACC-62 melanoma): > 10 µM

Compound: CN(C)c1ccc(/C=C(\NC(=O)c2ccccc2)C2NC(Cc3c[nH]c4ccccc34)C(=O)O2)cc1 (centres undefined)
- TGI (786-0 renal): > 100 µM
- TGI (A549 NSCLC): > 100 µM
- TGI (CCRF-CEM leukemia): > 100 µM
- TGI (HCT-116 colon): > 100 µM
- TGI (NCI-H226 lung): > 100 µM
- TGI (NCI-H23 lung): > 100 µM
- TGI (NCI-H460 lung): > 74.5 µM
- TGI (OVCAR-8 ovarian): > 100 µM
- TGI (SK-MEL-28 melanoma): > 100 µM
- TGI (SK-OV-3 ovarian): > 100 µM
- TGI (SNB-75 CNS): > 100 µM
- TGI (U251 CNS): > 100 µM
- TGI (UACC-257 melanoma): > 100 µM
- TGI (UACC-62 melanoma): > 100 µM

Compound: O=c1oc2ccc3ccccc3c2cc1-c1nc2ccccc2o1
- TGI (786-0 renal): 42.2 µM
- TGI (A549 NSCLC): > 55.2 µM
- TGI (CCRF-CEM leukemia): > 100 µM
- TGI (HCT-116 colon): > 53.6 µM
- TGI (NCI-H226 lung): > 63.6 µM
- TGI (NCI-H23 lung): > 63.3 µM
- TGI (NCI-H460 lung): > 100 µM
- TGI (OVCAR-8 ovarian): 51.2 µM
- TGI (SK-MEL-28 melanoma): > 59.2 µM
- TGI (SK-OV-3 ovarian): > 54.4 µM
- TGI (SNB-75 CNS): 40.7 µM
- TGI (U251 CNS): 53.1 µM
- TGI (UACC-257 melanoma): 99.2 µM
- TGI (UACC-62 melanoma): > 100 µM

Compound: CC(=O)OCC1OC(n2c(N)c(C#N)c(-c3ccc(C)cc3)c(C#N)c2=S)C(OC(C)=O)C(OC(C)=O)C1OC(C)=O (centres undefined)
- TGI (786-0 renal): 29.2 µM
- TGI (A549 NSCLC): 29.5 µM
- TGI (CCRF-CEM leukemia): 78.4 µM
- TGI (HCT-116 colon): > 100 µM
- TGI (NCI-H226 lung): 20.1 µM
- TGI (NCI-H23 lung): 51.9 µM
- TGI (NCI-H460 lung): > 100 µM
- TGI (OVCAR-8 ovarian): 28.5 µM
- TGI (SK-MEL-28 melanoma): > 100 µM
- TGI (SK-OV-3 ovarian): 66.5 µM
- TGI (SNB-75 CNS): 29.5 µM
- TGI (U251 CNS): 30.6 µM
- TGI (UACC-257 melanoma): 39.7 µM
- TGI (UACC-62 melanoma): > 100 µM

Compound: CCCCCCCC(=O)NC(C)(C)C(=O)NC(COC(C)(C)C)C(=O)NC(CC(C)C)C(=O)NC(C)(C)C(=O)NC(COC(C)(C)C)C(=O)NC(COC(C)(C)C)C(=O)NC(CC(C)C)C(=O)NC(C)(C)C(=O)NC(COC(C)(C)C)C(=O)NC(C(=O)NC(CC(C)C)C(=O)OC)C(C)CC (centres undefined) (Octanoyl-[Aib]S(tBu)L[Aib]S(tBu)S(tBu)L[Aib]S(tBu)IL-OMe; configuration not given here)
- TGI (786-0 renal): 23.4 µM
- TGI (A549 NSCLC): > 25 µM
- TGI (CCRF-CEM leukemia): 11.9 µM
- TGI (HCT-116 colon): > 25 µM
- TGI (NCI-H226 lung): 21.1 µM
- TGI (NCI-H23 lung): 12.7 µM
- TGI (NCI-H460 lung): 13.8 µM
- TGI (OVCAR-8 ovarian): > 25 µM
- TGI (SK-MEL-28 melanoma): > 25 µM
- TGI (SK-OV-3 ovarian): > 25 µM
- TGI (SNB-75 CNS): 16.4 µM
- TGI (U251 CNS): 12.8 µM
- TGI (UACC-257 melanoma): > 25 µM
- TGI (UACC-62 melanoma): 23.7 µM
